Test results published in patent US20080108611A1, “SUBSTITUTED THIENOPYRIMIDINE KINASE INHIBITORS” (priority 2006, published 2008).

How the values were obtained:
VEGF-R2 = biological target: T1, VEGF-R2 (Rattus norvegicus, UniProt O08775); test: VEGF-R2 Screening Assay; type: biochemical; conditions: rat VEGF-R2 kinase domain, 10 μM ATP
T1 construct: polyhistidine (N)
Procedure: (§1) A kinase reaction mixture was prepared containing 50 mM Tris-HCl at pH 8, 10 mM MgCl2, 0.1 mM Na3PO4, 1 mM DTT, 10 μM ATP, 0.025 μM biotinylated histone-H1 peptide substrate and 0.2 μCuries per well ^33P-γ-ATP (2000-3000 Ci/mmol). 70 μL of the kinase reaction mixture was dispensed into the well of a Streptavidin FlashPlate.
(§2) Test compound stock in 100% DMSO (1 μL) was added to the wells resulting in a final concentration of 1% DMSO in the reaction with a 100 μL final reaction volume. Each enzyme was diluted in 50 mM Tris-HCl pH=8.0, 0.1% BSA and 30 μL was added to each well to initiate the reaction. The reaction was incubated for one hour at 30° C. At the end of the 1 hr incubation, the reaction was terminated by aspirating the mixture from the plate and washing the wells twice with PBS containing 100 mM EDTA. The biotinylated peptide substrate became immobilized on the Flashplate™ and the incorporation of ^33P-γ-ATP was measured by reading the plate on a scintillation counter. Inhibition of the enzymatic activity was measured by observing a reduced amount of ^33P-γ-ATP incorporated into the immobilized peptide.
The VEGF-R2 enzyme is a fusion protein containing a polyhistidine tag at the N terminus followed by amino acids 786 to 1343 of the rat VEGF-R2 kinase domain (Accession number U93306). The assay used 150 ng of the N-terminal biotinylated peptide biotin-KHKKLAEGSAYEEV-amide (VEGF-R2) per well.
(§3) The IC50 was derived according to the procedure described in Example 1.

A375 malignant melanoma = test: Cell Proliferation Inhibition Assay (14C-thymidine incorporation), A375; type: cell-based; conditions: Homo sapiens, A-375; A375 cells
Procedure: (§4) The ability of a test compound to inhibit unregulated cell proliferation was determined by measuring incorporation of ^14C-labelled thymidine into newly synthesized DNA within cell lines derived from carcinomas originating from several tissues. Accordingly, the anti-proliferative effect of a compound on cells with a variety of phenotypes may be determined.
(§5) Carcinoma cell lines include those such as HeLa cervical adenocarcinoma (American Type Culture Collection (ATCC), Virginia, Cat. #CCL-2), A375 malignant melanoma (ATCC CRL-1619), SK-OV-3 ovarian adenocarcinoma (ATCC HTB-77), HCT-116 colon carcinoma (CCL-247), PC-3 prostate adenocarcinoma (ATCC CRL-1435), and MDA-MB-231 (Xenogen Corp.)
(§6) The carcinoma cells were trypsinized and counted. The cells (3000-8000 count) were added to each well of a 96-well CytoStar tissue culture treated scintillating microplate (Amersham #RPNQ0160) in complete medium (100 μL) and the plate was then incubated in complete medium for 24 hrs at 37° C. in an […] atmosphere containing 5% CO2. Test compound (1 μL) in 100% DMSO was added to the plate test-wells with DMSO only added to control-wells. The plate was incubated in complete medium for a second 24 hr period at 37° C. in an atmosphere containing 5% CO2.
(§7) An aliquot of a solution of methyl ^14C-thymidine (56 mC/mmol) (NEN #NEC568 or Amersham #CFA532) and complete medium (20 uL to provide 0.2 μCi/well) was then added to each well and the plate was incubated for a third 24 hr period at 37° C. in an atmosphere containing 5% CO2. The plate contents were then discarded, the plate was washed twice with PBS (200 μL) and then PBS (200 μL) was added to each well. The plate was sealed and the degree of methyl ^14C-thymidine incorporation was quantified on a Packard Top Count.

[1] = tested on: HeLa cervical adenocarcinoma; test: Cell Proliferation Inhibition Assay (14C-thymidine incorporation), HeLa; type: cell-based; conditions: Homo sapiens; HeLa cells
Procedure: as §4, §5, §6, §7

Aurora-A = biological target: T2, Aurora-A (Mus musculus, UniProt P97477); test: Aurora-A Screening Assay; type: biochemical; conditions: murine Aurora-A full length, 10 μM ATP
T2 construct: followed by the full length protein encoding the murine Aurora-A; polyhistidine (N); made in house; host or cells: Sf9 insect cells
T2 sequence (P97477 1-395): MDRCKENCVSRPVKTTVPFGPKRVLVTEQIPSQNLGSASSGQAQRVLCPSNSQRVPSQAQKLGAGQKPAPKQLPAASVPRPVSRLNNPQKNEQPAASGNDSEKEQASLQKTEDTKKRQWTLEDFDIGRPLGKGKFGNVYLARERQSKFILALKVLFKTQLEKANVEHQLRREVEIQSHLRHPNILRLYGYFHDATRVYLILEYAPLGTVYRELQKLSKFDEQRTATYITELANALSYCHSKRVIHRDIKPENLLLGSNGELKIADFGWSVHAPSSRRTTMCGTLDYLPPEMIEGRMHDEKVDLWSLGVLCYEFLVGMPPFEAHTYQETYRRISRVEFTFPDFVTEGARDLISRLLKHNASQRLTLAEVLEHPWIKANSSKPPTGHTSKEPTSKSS
Procedure: as §1, §2
Aurora-A is a fusion protein containing a polyhistidine tag at the N terminus followed by the full length protein encoding the murine Aurora-A (Accession number GB BC014711) expressed and purified from sf9 insect cells. The assay used 400 ng of the N-terminal biotinylated peptide biotin-GRTGRRNSI-amide (Aurora-A) per well.
as §3

HER-2 = biological target: T3, HER-2 (Homo sapiens, UniProt P04626); test: HER-2 Kinase Assay; type: biochemical; conditions: GST-HER2, 1 μM ATP
T3 construct: the nucleotides encoding amino acids 679 to 1255 of HER-2; HIS6-Thrombin (His6 tag and thrombin site) (N); purchased Proqinase (Freiburg, Germany)
Procedure: HER-2 kinase was purified at Proqinase (Freiburg, Germany) from a construct that consisted of a fusion of GST (Glutathione-S-Transferase), HIS6-Thrombin and the nucleotides encoding amino acids 679 to 1255 of HER-2.
A mixture of a 10× kinase reaction buffer (600 mM Hepes at pH 7.5, 30 mM Magnesium Chloride, 0.03 mM Sodium Vanadate and 500 μg/mL PEG 20,000), DTT (1.2 mM final from a 10 mM stock), ATP (1 μM from a 10 mM stock), biotinylated polyGluTyr (1.5 ng/μL final from stock of 1 μg/μL prepared by Upstate Biotechnologies, Lake Placid, N.Y.), Manganese Chloride (3 mM final from a 1 M stock), γ-^33P-ATP (10 μCi/μL stock) and water (70 μL/well) was added to each well of a Streptavidin Flashplate (Cat. # SMP103, NEN, Boston, Mass.).
Test compound stock (1 μL) was added to the appropriate wells. Diluted GSTHER2 kinase (6.7 ng/μL diluted into 50 mM Tris-HCl at pH 8.0 and 0.1% bovine serum albumin) (30 μL) was added (total volume of 200 ng/well) to initiate the reactions.
The reaction plates were incubated at 30° C. for 1 hr. The reaction was terminated by aspirating the reaction mixture from the plate wells and washing the wells three times with a 1×PBS stop buffer (300 μL) and 100 mM EDTA. After the final wash, the same stop buffer (200 μL) was again added to the wells. The plates were then sealed and read on the TopCount scintillation counter. The IC50 was derived according to the procedure described in Example 1.

HCT-116 colon carcinoma = test: Cell Proliferation Inhibition Assay (14C-thymidine incorporation), HCT116; type: cell-based; conditions: Homo sapiens, HCT116 cells
Procedure: as §4, §5, §6, §7

T1 sequence (O08775 786-1343): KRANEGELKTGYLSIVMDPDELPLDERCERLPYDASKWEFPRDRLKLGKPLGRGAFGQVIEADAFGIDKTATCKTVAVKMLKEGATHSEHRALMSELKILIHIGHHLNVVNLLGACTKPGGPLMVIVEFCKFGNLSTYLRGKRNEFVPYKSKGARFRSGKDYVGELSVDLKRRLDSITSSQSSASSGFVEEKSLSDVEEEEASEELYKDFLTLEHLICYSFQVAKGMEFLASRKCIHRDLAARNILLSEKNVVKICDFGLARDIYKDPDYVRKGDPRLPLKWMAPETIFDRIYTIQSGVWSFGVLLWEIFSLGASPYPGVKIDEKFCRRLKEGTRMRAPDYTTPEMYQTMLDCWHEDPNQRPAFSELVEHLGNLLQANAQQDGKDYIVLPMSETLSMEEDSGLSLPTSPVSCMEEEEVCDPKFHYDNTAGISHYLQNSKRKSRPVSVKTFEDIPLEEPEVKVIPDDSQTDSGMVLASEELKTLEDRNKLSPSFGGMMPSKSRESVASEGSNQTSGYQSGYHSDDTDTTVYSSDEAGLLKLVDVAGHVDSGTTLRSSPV
T3 sequence (P04626 679-1255): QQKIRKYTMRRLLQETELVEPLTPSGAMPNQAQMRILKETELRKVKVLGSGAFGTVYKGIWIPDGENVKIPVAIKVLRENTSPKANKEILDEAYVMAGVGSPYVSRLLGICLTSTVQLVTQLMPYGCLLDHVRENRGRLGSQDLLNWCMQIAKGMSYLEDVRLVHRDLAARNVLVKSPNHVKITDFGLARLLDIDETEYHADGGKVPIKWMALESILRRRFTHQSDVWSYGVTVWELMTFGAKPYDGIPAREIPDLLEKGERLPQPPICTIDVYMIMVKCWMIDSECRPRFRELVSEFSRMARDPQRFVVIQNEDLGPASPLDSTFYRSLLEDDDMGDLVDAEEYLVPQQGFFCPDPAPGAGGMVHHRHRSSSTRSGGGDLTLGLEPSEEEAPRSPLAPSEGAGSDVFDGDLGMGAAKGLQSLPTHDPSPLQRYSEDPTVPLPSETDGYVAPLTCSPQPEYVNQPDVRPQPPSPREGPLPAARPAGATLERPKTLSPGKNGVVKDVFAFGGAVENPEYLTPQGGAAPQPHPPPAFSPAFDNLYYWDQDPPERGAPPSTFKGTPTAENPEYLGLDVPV

| IC50 (VEGF-R2) [µM] | IC50 (A375 malignant melanoma) [µM] | IC50 [1] [µM] | IC50 (Aurora-A) [µM] | IC50 (HER-2) [µM] | IC50 (HCT-116 colon carcinoma) [µM] | SMILES |
| --- | --- | --- | --- | --- | --- | --- |
| > 100 | > 10 | > 10 | > 10 | > 100 | > 10 | Cc1c(C(=O)NCCN2CCOCC2)sc2ncnc(Nc3ccc(NC(=O)c4ccccc4)cc3)c12 [Cpd 25, 4-(4-benzoylamino-phenylamino)-5-methyl-thieno[2,3-d]pyrimidine-6-carboxylic acid (2-morpholin-4-yl-ethyl)-amide] |
| > 100 | > 10 | > 10 | > 1 | > 10 | > 10 | Cc1c(C(=O)NCCCN2CCOCC2)sc2ncnc(Nc3ccc(NC(=O)c4ccccc4)cc3)c12 [Cpd 26, 4-(4-benzoylamino-phenylamino)-5-methyl-thieno[2,3-d]pyrimidine-6-carboxylic acid (3-morpholin-4-yl-propyl)-amide] |
